From publication PMC11634579, “Network pharmacology, experimental validation and pharmacokinetics integrated strategy to reveal pharmacological mechanism of goutengsan on methamphetamine dependence” (Frontiers in Pharmacology, 2024) come the findings set out here.

SMILES strings stand for the structures.

The test system of assay [1] is pyramidal cells in hippocampal CA1. The experiment in a line: HE staining of rat hippocampal CA1 after CPP test. The class given is in vivo, Sprague-Dawley (SD) rats. To be noted: vs MA model group. The source says: After the CPP test, a cervical dislocation method was used to euthanize the rats. The brain tissue of each rat was cut along the midline of the sagittal plane in the head. […] The hippocampus consists of CA1, CA2, CA3, and CA4. Specifically, CA1 is mainly composed of […], and is more suitable for MA-dependent observation ([Zhong et al., 2012]). Therefore, the pyramidal cells in hippocampal CA1 were mainly observed after hematoxylin-eosin (HE) staining. The hippocampal CA1 after HE staining was observed under microscopy and then photographed.

In another assay the test system is MA-induced CPP effect. Nature of the assay: MA-dependent rat conditioned place preference (CPP) model. The conditions noted are these: vs MA model group, GTS 11.00 g crude drug/kg i.p., MK-801 10 mg/kg i.p. The class given is in vivo, Sprague-Dawley (SD) rats. On the procedure: Male Sprague-Dawley (SD) rats weighing 180–220 g (2 months old) were provided by the Experimental Animal Center of Southern Medical University. The rats were maintained at room temperature (20 ± 2) °C, humidity (60 ± 5)%, 12 h light cycles, and provided an ad libitum diet. Before commencing the experiment, the rats were allowed to acclimatize for a minimum of 3 days. The Southern Medical University Experimental Animal Ethics Committee approved all animal experiments, which were conducted in accordance with the National Institutes of Health Guide for the Care and Use of Laboratory Animals (NIH publication #85–23, revised 1985). […] An MA-dependent rat CPP model was established in our previous studies and MA was used at 2 mg/kg ([Li et al., 2018b]). […] Before administration, determine the dosing volume based on each rat’s body weight; for example, a 200 g rat would receive a 1 mL dose.
Given the scarcity and specificity of […], we decided to use a 4x equivalent dose of GTS as the therapeutic dose. Thus, in the current study, only one treatment dose group of GTS was selected.
The CPP exam was made up of three phases over the course of 10 days (Figure 5A). During the habituation phase (days 1–3), each rat was allowed to move freely firom the black to white compartment for 30 min each day. On day 3, rats were videotaped throughout a 15-min trial and their movement trajectories, time spent and total movement distances were recorded. The door was closed to keep the two compartments apart during the conditioning period (on days 4–9). […] Rats were given the same amount of physiological saline (s.c.) in each group after an 8-h break, and they were then promptly segregated into the black compartment for 1 h. […] At 0:00 a.m. on day 10 (testing phase), the formal CPP testing began, rats were videotaped throughout a 15-min trial using Noldus Ethovision XT 8.5 software, and their movement trajectories, time spent and total movement distances were recorded.

A further assay deals with 5-HT. Nature of the assay: Elisa detection of 5-HT in MA-induced SH-SY5Y cells. The class given is cell-based, human. The conditions noted are these: vs MA model group (100 μmol ·L^−1 MA, 48 h); 4x equivalent dose GTS-containing serum, MK-801 100 μmol ·L^−1. On the procedure:
(§1) An equal volume of the complete culture medium was added to the control group. The drug-containing culture medium (100 μmol ·L^−1 MA) was added to MA model group. […] After medication, all groups were continued for 48 h, photographed, and used for the next experiment.
(§2) The above SH-SY5Y cells were inoculated onto a 6-well plate, and cultured for 24 h. Then the culture medium was aspirated. The cells were rinsed with phosphate buffered salt (PBS) once. After PBS was removed, a hydrochloric acid solution was added. The cells were scraped to form cell suspension. After centrifugation, the supernatant was extracted, and the cAMP and 5-HT levels of the cells were detected according to the instructions of an Elisa reagent kit (Dakewei Biotechnology Co., Ltd.) ([Zhan et al., 2022]).

For a further assay, the system named is cAMP. The experiment in a line: Elisa detection of cAMP in MA-induced SH-SY5Y cells. The class given is cell-based, human. The conditions noted are these: vs MA model group (100 μmol ·L^−1 MA, 48 h); 4x equivalent dose GTS-containing serum, MK-801 100 μmol ·L^−1. The protocol: as §1, §2

With `C[C@]12N[C@H](Cc3ccccc31)c1ccccc12` [MK-801, Dizocilpine], in assay [1], the “damage of pyramidal cells in hippocampal CA1 (HE staining)” value is reported as “significantly reduced damage”. The “movement trajectory in CPP box after MA training” value with MA-induced CPP effect (once daily days 5–9) was “significantly decreased”. In addition, in the assay on MA-induced CPP effect (n = 10), the “time spent in the white box after MA training” value was “same trend as GTS treatment group” and the “total movement distances in the white box after MA training” value is reported as “same trend as GTS treatment group”. Moreover, the “level of 5-HT in SH-SY5Y cells” value in the assay with 5-HT is listed as “same trend as GTS treatment group”. Also, the “level of cAMP in SH-SY5Y cells” value in the assay on cAMP is on record as “same trend as GTS treatment group”.
